{"source": "patent US20250098680A1", "about": "(priority 2022, published 2025)", "key": {"Phytophthora infestans [1]": {"test_system": "Phytophthora infestans", "type": "cell-based", "conditions": "for effective pesticide against Phytophthora infestans (summary in words): summary of in vitro screening; for Bio-activity value Phytophthora infestans: tomato leaf discs, compound dissolved in DMSO, visual score 5 days, % from maximal value"}, "Phytophthora infestans [2]": {"test_system": "Phytophthora infestans", "type": "in vivo, Phytophthora infestans on tomato", "conditions": "tomato seedlings, greenhouse, preventative spraying, Formulation 15 or 16, four independent experiments (FIGS. 1-4)"}, "[3]": {"test_system": "Pseudoperonospora cubensis", "assay": "Microplate-based cucumber leaf disc screening against Pseudoperonospora cubensis", "type": "cell-based", "procedure": "Background: Pseudoperonospora cubensis is an obligatory pathogen from Oomycetes which is very difficult to grow on synthetic medium. Therefore, the bioactivity screening system based on leaf discs prepared from detached cucumber leaves were used.\nSummary: dihydroquinidine or dihydroquinine were dissolved in DMSO were added to cucumber leaf discs infected with Pseudoperonospora and the disease progress was monitored by visual inspection.\nGeneral description: Inoculation and maintenance on cucumber leaves, preparation of spore suspension, their growth on leaf discs in microplates and inspection by magnifying glass of Pseudoperonospora cubensis severity of infection.\n• 1) Grow plants, in the growth room (27° C.), high light radiation. • 2) Use standard garden soil. • 3) Plant cucumber seeds. • 4) Add fertilizer once a week.\n• 1) Put 3 (double) pieces of sterile paper in a square Petri dish. • 2) Work in sterile conditions. • 3) Use leaves from healthy plants. The leaves should be young and healthy, their size should fit to the square plate. • 4) Cut the leaves by a sterile scalpel, leaving a long stem. • 5) Add 10 ml sterile distilled water to wet the paper (the paper should be maximally wet, but without additional dripping water), discard excess of water. […]"}, "Cucumber downey mildew": {"test_system": "Cucumber downey mildew", "conditions": "described in JP2003081945A; cited from earlier work"}}, "data": [{"smiles": "CCC1C[N@]2CC[C@H]1C[C@@H]2C(O)c1ccnc2ccc(OC)cc12", "note": "(stereo in doubt) [DIHYDROQUINIDINE, (S)-[(2R,4S,5R)-5-ethyl-1-azabicyclo[2.2.2]octan-2-yl](6-methoxyquinolin-4-yl) methanol]", "values": [{"measurement": "effective pesticide against Phytophthora infestans (summary in words)", "setting": "Phytophthora infestans [1]", "result": "effective"}, {"measurement": "Bio-activity value Phytophthora infestans", "setting": "Phytophthora infestans [1]", "result": 100, "unit": "%"}, {"measurement": "efficacy of control of Phytophthora infection", "setting": "Phytophthora infestans [2]", "result": "up to 89.38%"}, {"measurement": "Bio-activity value Pseudoperonospora cubensis", "setting": "[3]; cucumber leaf discs, compound dissolved in DMSO, visual score 7 days after inoculation, % from maximal value", "result": 66, "unit": "%"}, {"measurement": "effective pesticide against Pseudoperonospora cubensis (summary in words)", "setting": "[3]; summary of in vitro screening", "result": "effective"}]}, {"smiles": "CCC1C[N@]2CC[C@H]1C[C@H]2C(O)c1ccnc2ccc(OC)cc12", "note": "(stereo in doubt) [DIHYDROQUININE, (R)-[(2S,4S,5R)-5-ethyl-1-azabicyclo[2.2.2]octan-2-yl](6-methoxyquinolin-4-yl) methanol]", "values": [{"measurement": "effective pesticide against Phytophthora infestans (summary in words)", "setting": "Phytophthora infestans [1]", "result": "affective"}, {"measurement": "Bio-activity value Phytophthora infestans", "setting": "Phytophthora infestans [1]", "result": 83, "unit": "%"}]}, {"smiles": "C=C[C@H]1C[N@@]2CC[C@H]1C[C@H]2[C@H](O)c1ccnc2ccc(OC)cc12", "note": "[quinine]", "values": [{"measurement": "bioactivity against Cucumber downey mildew", "setting": "Cucumber downey mildew", "result": "fungicidal bioactivity"}]}]}
